In PMC3723855, “R31C GNRH1 Mutation and Congenital Hypogonadotropic Hypogonadism” (PLoS ONE, 2013):

Tested on: LbetaT2 cells
Experiment: Intracellular calcium mobilization (Fura2) in LbetaT2 cells
Type: cell-based, murine
Conditions: pre-treatment with 100 nM cetrorelix; data not shown
Procedure: Figure 5 Effect of treatments on intracellular calcium mobilization. Cells were loaded with Fura 2-AM. At the time of the experiment 100 µM EGTA was added 30 sec before addition of 300 µM of CaCl2 (Ca^2+) to the medium as indicated, and cells were then stimulated with 10 nM of wild type (WT), mutant (R31C) or equimolar combination (10 nM WT +10 nM R31C) or vehicle for 3 min. In the upper panel, representative curves of single cell recording. Each experiment mean was analysed using One-way ANOVA followed by Tukey's Multiple comparison test. In the lower panels, histograms show the means ± SEM (n = 4) of the response to ligands as calcium peak and as area under the curve (AUC). […] Representative of at least three independent experiments, *p<0.05.
LbetaT2 cells were kept in serum free medium overnight and then loaded with 2 µM Fura2-AM for 45 min at 37°C. The experiment was conducted in HEPES buffer (in mM; 116 NaCl, 5.6 KCl, 1.2 MgCl2, 5 NaHCO3, 1 NaH2PO4, 20 HEPES ph 7.4) in presence of extracellular Ca^2+ (EGTA 100 µM + CaCl2 300 µM). Single images of fluorescent emission at 510 nm under excitation at 340 and 380 nm were taken every 5 Sec. Changes in [Ca^2+]i in response to GnRHs were monitored using the Fura2 340/380 fluorescence ratio. Basal ratio was arbitrarily considered as 1. Ca^2+ responses over basal level were given either as maximal rise of [Ca^2+]i or as area under the curve (for 2 min after agonist addition).

Substance: cetrorelix [reference compound]
- calcium responses to WT and R31C after antagonist pre-treatment: abolished responses to both ligands
